Assay results from US20110046482A1, “METHODS FOR REDUCING TOXICITIES ASSOCIATED WITH MEDICAL PROCEDURES EMPLOYING RADIOGRAPHIC CONTRAST AGENTS” (OREGON HEALTH & SCIENCE UNIVERSITY, priority 2006, published 2011).

Key:
[1] = Blood/serum levels of NAC and thiols by HPLC after IV or PO NAC; format: in vivo
Protocol: NAC is known to enhance de novo glutathione synthesis, and may also impact levels of other thiols. […] In contrast to the IV results, the group given NAC 1200 mg/kg by the PO route had very low levels of serum NAC (0.12±0.12) at 15 min or 60 min after infusion.

[2] = test system: cellular apoptosis proteins; assay: NAC-mediated inhibition of cisplatin-induced apoptosis, Western Blot analysis; format: cell-based
Protocol: Thus, the ability of NAC to modulate cellular apoptosis proteins was evaluated by Western Blot analysis.

[3] = Effect of route of administration on biodistribution of radiolabelled NAC; format: in vivo; settings: rats
Protocol: Radiolabelled NAC in combination with unlabeled NAC (140 mg/kg) was administered to rats with the following routes of infusion: IV; IA into the right carotid artery for brain infusion; aortic infusion (IA infusion via the left external carotid artery with left internal artery occlusion) to avoid brain infusion; and IA (right carotid) with osmotic Blood Brain Barrier Disruption (BBBD) to maximize delivery to the brain.

[4] = N-acetylcysteine dose escalation, IV at time 0, 4 and 8 hours, followed for two weeks
Protocol: Rats were given NAC IV at time 0, 4 hours, and 8 hours and were then followed for two weeks.

[5] = test system: cumulative cisplatin nephrotoxicity; assay: Multiple low dose cisplatin nephrotoxicity model; format: in vivo; settings: rats
[6] = test system: cisplatin-induced nephrotoxicity; assay: Cisplatin (10 mg/kg IP) nephrotoxicity model, BUN, creatinine and weight 3 days after treatment; format: in vivo; settings: rats
Protocol: There are few animal models of contrast-induced nephropathy, and the reported models are not easily reproducible.
Rats were tested for renal toxicity 3 days after treatment by measuring serum concentrations of BUN and creatinine (CR).

[7] = Clearance of NAC, blood thiol concentration every 15 minutes by colorimetric kit; format: in vivo; settings: rat, intravenous, other: IA into the descending aorta, IV or IA into the descending aorta, 140, 400, 1000 and 1200 mg/kg, all doses
Protocol: NAC was administered either IV or IA into the descending aorta, and blood samples were assessed for thiol concentration every 15 minutes using a colorimetric kit. The NAC doses tested were 140, 400, 1000, and 1200 mg/kg.

cisplatin nephrotoxicity = assay: Cisplatin nephrotoxicity after NAC IV, PO or IA in the descending aorta; format: in vivo; settings: rats
Protocol: IV NAC was nephroprotective at a dose of 400 mg/kg but not at a lower dose of 50 mg/kg.

[8] = cisplatin 10 mg/kg IP + NAC 400 mg/kg IP
[9] = cisplatin 10 mg/kg IP + NAC 400 mg/kg PO

With `CC(=O)N[C@@H](CS)C(=O)O` [NAC, N-acetylcysteine] as the compound, how does the “blood level of NAC (mean)” value ([1]; IV 100 mg/kg) read?
The value was 380 ± 160 µM.

And the “blood level of NAC (mean)” value ([1]; IV 400 mg/kg)?
The value was 2190 ± 190 µM.

And the “blood level of NAC (mean)” value ([1]; IV 1200 mg/kg)?
The value was 6220 ± 180 µM.

And the “serum concentration of metabolite oxidized NAC relative to NAC alone” value ([1]; IV, 15 min after administration)?
Its value is “approximately double”.

And the “serum NAC level” value ([1]; PO 1200 mg/kg, at 15 min or 60 min after infusion)?
Its value is 0.12 ± 0.12 mM.

What about the “protection against cisplatin cytotoxicity” value ([2]; NAC 8 hours after cisplatin) of the same compound?
Its value is “minimal”.

What about the “effect on cytotoxic effects of cisplatin (apoptosis proteins)” value ([2]; NAC added concurrent with cisplatin or up to 2 hours after) of the same compound?
Its value is “reversed the cytotoxic effects of cisplatin”.

What about the “protection against cisplatin cytotoxicity” value ([2]; NAC delayed more than 2 hours) of the same compound?
Its value is “protection was reduced”.

What about the radiolabel in brain ([3]; NAC 140 mg/kg, IA right carotid artery) of the same compound?
The radiolabel in brain was “high levels of radiolabel in the right cerebral hemisphere”.

And the “radiolabel in right cerebral hemisphere relative to IA without BBBD” value ([3]; NAC 140 mg/kg, IA right carotid with osmotic BBBD)?
The value was “doubled”.

What about the “brain delivery of NAC” value ([3]; NAC 140 mg/kg, aortic infusion) of the same compound?
The value was “negligible levels”.

And the delivery to kidney ([3]; NAC 140 mg/kg, aortic infusion)?
The delivery to kidney was “increased systemic delivery to kidney”.

What about the “amount of NAC found in the brain” value ([3]; radiolabelled + unlabeled NAC 140 mg/kg, IV) of the same compound?
The value was “negligible amounts”.

And the safety/tolerability ([4]; rat, in vivo, iv, 1200 mg/kg)?
The safety/tolerability was “safe and well-tolerated”.

And the “weight loss and signs of toxicity” value ([4]; rat, in vivo, iv, 1200 mg/kg)?
Its value is “no weight loss and no signs of toxicity”.

And the tolerability of infusions ([4]; rat, in vivo, iv, 1500 mg/kg)?
The tolerability of infusions was “tolerated the infusions well”.

And the “loss of body weight” value ([4]; rats, NAC IV 1500 mg/kg×3 (0, 4, 8 hours), within 2-3 days of infusion)?
Its value is 5%-10%.

And the protection against nephrotoxicity ([5]; NAC 800 mg/kg IP 30 minutes before each cisplatin treatment)?
Its protection against nephrotoxicity is “no protective effect”.

And the protection against nephrotoxicity ([5]; NAC 800 mg/kg IV 30 minutes before each cisplatin treatment)?
Its protection against nephrotoxicity is “protective against the cumulative nephrotoxicity”.

What about the BUN [6, 8] of the same compound?
Its BUN is 131.8 ± 8.2 mg/dL.

And the “CR (creatinine)” value [6, 8]?
The value was 2.3±0.38.

What about the BUN ([6]; cisplatin 10 mg/kg IP + NAC 400 mg/kg IV, p<0.0001) of the same compound?
The BUN was 26.33 ± 6.76 mg/dL.

What about the “CR (creatinine)” value ([6]; cisplatin 10 mg/kg IP + NAC 400 mg/kg IV, p<0.0013) of the same compound?
The value was 0.47±0.15.

And the BUN [6, 9]?
The BUN was 123.3 ± 8.2 mg/dL.

What about the “CR (creatinine)” value [6, 9] of the same compound?
Its value is 1.77±0.21.

What about the “percent weight loss over the test period versus the other groups” value ([6]; cisplatin + IV NAC, p<0.0001) of the same compound?
Its value is “significantly lower percent weight loss”.

What about the half-life [7] of the same compound?
Its half-life is less than 15 min.

And the nephroprotection (cisplatin nephrotoxicity; NAC 50 mg/kg IA in the descending aorta)?
Its nephroprotection is “significant nephroprotection”.

What about the nephroprotection (cisplatin nephrotoxicity; NAC 50 mg/kg IV) of the same compound?
The nephroprotection was “not nephroprotective”.

And the nephroprotection (cisplatin nephrotoxicity; NAC 400 mg/kg IV)?
Its nephroprotection is “nephroprotective”.

What about the “protection against cisplatin nephrotoxicity” value (cisplatin nephrotoxicity; NAC 400 mg/kg PO via nasogastric tube, cisplatin 10 mg/m^2) of the same compound?
Its value is “not protective”.

What about the “time to renal failure” value (cisplatin nephrotoxicity; NAC 400 mg/kg PO, cisplatin 10 mg/m^2) of the same compound?
The value was no more than 3 days.
